From publication PMC10608985, “Retention Behavior of Anticancer Thiosemicarbazides in Biomimetic Chromatographic Systems and In Silico Calculations” (Molecules, 2023)

Experiments:
[1] = HPLC lipophilicity on IAM (immobilized artificial membrane, phosphatidylcholine) stationary phase; format: physicochemical; settings: pH 7.4; for Log k IAM: Table S2; for log kw IAM: intercept, linear extrapolation to water; for log kw IAM / -S IAM: ACN/20 mM phosphate buffer; for -S IAM: slope of Soczewiński–Wachtmeister equation
Procedure: (§1) For the evaluation of the compounds the following stationary phases were used: C-18; biomimetic, IAM; cholesterol (Chol); immobilized proteins HSA and AGP. For the lipophilicity determination, MeOH (C-18, Chol) or ACN (IAM) were applied as the organic modifiers. The measurements were performed at pH 7.4 of the mobile phase. The regular changes in the retention of all solutes used as organic modifier content in the mobile phase on three studied stationary phases were found. It is expressed by the Soczewiński–Wachtmeister Equation (1):log k = log kw + S (% organic modifier)(1) where log kw—the intercept; S—the slope of regression curve. […] Log kw as well as S parameters are commonly applied as lipophilicity descriptors.
(§2) HPLC measurements were performed using a liquid chromatograph Knauer (Knauer, Berlin, Germany) with a dual pump, a 20 µL simple injection valve, and a UV–visible detector. The compounds were detected under UV light at 280 nm at room temperature. The retention time of an unretained solute (t0) was determined by the injection of a small amount of citric acid dissolved in water.
A Rexchrom IAM.PC.DD2 (12 μm, 100 × 4.6 mm, 300 Å) (Regis Technologies, Morton Grove, IL, USA) column was used as the stationary phase. The compounds were dissolved at a concentration of 0.5 mg × mL^−1 in MeOH. The mobile phases consisted of different volume fractions of ACN and 20 mM phosphate buffer; the aqueous phase maintained a pH = 7.4 (0.02 M KH2PO4, Na2HPO4 and 0.15 M KCl). The acetonitrile concentration ranged from 0.05 to 0.4 (v/v), depending on the structure of compound, at 0.05 intervals (Table S2 in the Supplementary Materials). The flow rate was 1 mL × min^−1.

[2] = HPLC lipophilicity on cholesterol (Chol) stationary phase; format: physicochemical; settings: pH 7.4; for Log k Chol: Table S3; for log kw Chol: intercept, linear extrapolation to water; for log kw Chol / -S Chol: MeOH/20 mM acetate buffer; for -S Chol: slope of Soczewiński–Wachtmeister equation
Procedure: as §1, §2
Cogent 4 UDC Cholesterol (150 × 2.1 mm, 4 µm) MicroSolv Technology Corporation (Leland, NC, USA) column was used. The mobile phase consisted of different volume mixtures of MeOH as the organic modifier and 20 mM acetate buffer as the aqueous phase, to obtain pH = 7.4. The concentrations of the organic modifier were in the range from 0.3 to 0.8 (v/v) with step 0.05 or 0.1 (Table S3 in the Supplementary Materials). The flow rate was 0.35 mL × min^−1.

[3] = target: T1, human serum albumin (HSA) (Homo sapiens, UniProt P02768); assay: HPLC on immobilized HSA column, affinity and % plasma–protein binding; format: in vitro ADME; settings: for log K HSA: binding equilibrium constant from calibration curve (Equation 8) of log k HSA; for fraction unbound: human, pH 7.4, % plasma–protein binding converted from log K HSA (Equation 10), read-out: %PPB HSA (converted); for log k HSA: retention on HSA column, 50 mM ammonium acetate pH 7.4 / propan-2-ol 85/15 (v/v)
T1 construct: purchased Chiralpac
T1 sequence (P02768 25-609): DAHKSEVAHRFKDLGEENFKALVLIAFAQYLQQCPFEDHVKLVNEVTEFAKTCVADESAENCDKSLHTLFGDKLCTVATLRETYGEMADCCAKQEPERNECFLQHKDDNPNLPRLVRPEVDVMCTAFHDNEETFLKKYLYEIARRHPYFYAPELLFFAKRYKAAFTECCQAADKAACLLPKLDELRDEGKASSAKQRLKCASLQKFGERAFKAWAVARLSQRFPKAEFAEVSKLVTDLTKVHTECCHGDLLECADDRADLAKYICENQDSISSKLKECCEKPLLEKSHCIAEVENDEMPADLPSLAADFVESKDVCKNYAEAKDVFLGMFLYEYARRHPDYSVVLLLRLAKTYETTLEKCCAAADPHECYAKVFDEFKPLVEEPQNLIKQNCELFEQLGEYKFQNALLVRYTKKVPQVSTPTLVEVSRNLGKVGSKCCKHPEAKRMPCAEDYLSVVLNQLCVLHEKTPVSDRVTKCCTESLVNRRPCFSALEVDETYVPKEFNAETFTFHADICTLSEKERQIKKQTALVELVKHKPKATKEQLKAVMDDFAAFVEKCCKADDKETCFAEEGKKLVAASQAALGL
Procedure: (§3) Measurements on HSA and AGP immobilized protein columns were carried out with […] isopropanol content in the aqueous mobile phase.
(§4) The standard calibration curve was used to predict log K values (K—binding equilibrium constant) of investigated compounds to HSA and AGP. Next, the log K values were converted into a percentage of plasma–protein binding (%PPB) of the compounds (Table 2). […] It is the lowest for compound 16 with -NO2 substituent, unsubstituted compound 1, and fluorine derivatives 2 and 9. In a group of […] derivatives in the same position of the phenyl ring, the %PPB to AGP increases with the increase in the atomic weight of the halogen atom and the lipophilicity of the molecule.
as §2
(§5) A human serum albumin (HSA) immobilized on the 5 µm silica gel column 100 × 3 mm (Chiralpac) and an α1-acid glycoprotein (AGP) immobilized on the 5 µm silica gel column 100 × 4 mm (Chiralpac) were used. The compounds were dissolved at 0.5 mg/mL concentration in 50% propan-2-ol and ammonium acetate solution (pH = 7.4) mixtures for HSA measurements. The mobile phase was composed of 50 mM ammonium acetate solution (pH = 7.4) and propan-2-ol at 85/15 (v/v) for AGP, respectively. The flow of mobile phases was 0.5 mL×min^−1. Log k values for the selected mobile phase were determined for all studied compounds and standard substances. The % protein plasma binding (% PPB) values were calculated from the calibration curve according to Valko et al..
(§6) Calibration of the protein columns: The column performance check and the calibration check were performed before measurements. The racemic mixture of warfarin was used for their performance evaluation. The following calibration set of drugs was applied: bromazepam, carbamazepine, diclofenac, nicardipine, nizatidine, piroxicam for HSA and bromazepam, chlorpromazine, imipramine, nicardipine, nizatidine, propranolol, and warfarin for AGP. The analytical standards were purchased from Sigma Aldrich Steinhen, Steinheim am Albuch, Germany). The drugs were dissolved at 0.5 mg/mL concentration in 50% propan-2-ol and ammonium acetate solution mixtures (pH = 7.4). The obtained log k values from HPLC were plotted against the log K values (K—binding equilibrium constant, log K—linearized PPB) based on the literature data for plasma–protein binding (%, PPB). The following relationships were obtained: log KHSA = 0.2513 (±0.0984) + 1.0525 (±0.1171) log k HSA(8) n=6, R=0.9761, R^2 = 0.9528, Radj2 = 0.9410, s = 0.1948 log KAGP = 0.1733 (±0.0574) + 0.8902 (±0.0787) log k AGP(9) n=7, R=0.9810, R^2 = 0.9623, Radj2 = 0.9548, s = 0.1113
(§7) Log K values were converted into %PPB using the following equation [15]:(10) %PPB=101×10^logK/1+10^logK

[4] = system: α1-acid glycoprotein (AGP); assay: HPLC on immobilized AGP column, affinity and % plasma–protein binding; format: in vitro ADME, human; settings: for log K AGP: binding equilibrium constant from calibration curve (Equation 9) of log k AGP; for fraction unbound: human, pH 7.4, % plasma–protein binding converted from log K AGP (Equation 10), read-out: %PPB AGP (converted); for log k AGP: retention on AGP column, 50 mM ammonium acetate pH 7.4 / propan-2-ol 85/15 (v/v)
Procedure: as §3, §4, §2, §5, §6, §7

[5] = parameters: method as in Kozyra et al. [31]; settings: MeOH/20 mM acetate buffer, pH 7.4, ref Kozyra et al. [31], cited from earlier work; for log kw C-18: intercept of Soczewiński–Wachtmeister equation (water as mobile phase); for -S C-18: slope of Soczewiński–Wachtmeister equation

| Log k IAM ([1]; ACN 0.15 v/v in mobile phase) | Log k IAM ([1]; ACN 0.20 v/v in mobile phase) | Log k IAM ([1]; ACN 0.25 v/v in mobile phase) | Log k IAM ([1]; ACN 0.30 v/v in mobile phase) | Log k IAM ([1]; ACN 0.35 v/v in mobile phase) | log kw IAM [1] | -S IAM [1] | Log k Chol ([2]; MeOH 0.50 v/v in mobile phase) | Log k Chol ([2]; MeOH 0.60 v/v in mobile phase) | Log k Chol ([2]; MeOH 0.80 v/v in mobile phase) | log kw Chol [2] | -S Chol [2] | log K HSA [3] | fraction unbound [3] | log k HSA [3] | log K AGP [4] | fraction unbound [4] | log k AGP [4] | Structure (SMILES) | log kw C-18 [5] | -S C-18 [5] | further results |
| --- | --- | --- | --- | --- | --- | --- | --- | --- | --- | --- | --- | --- | --- | --- | --- | --- | --- | --- | --- | --- | --- |
| 0.455 | 0.234 | -0.010 | -0.358 | -0.461 | 1.1961 | 4.8953 | -0.037 | -0.314 | -1.104 | 1.9241 | 3.7822 | 1.2775 | 0.041 | 0.9750 | 0.3986 | 0.278 | 0.2531 | O=C(COc1ccccc1)NNC(=S)Nc1ccccc1F [Compound 2] | 2.0774 | 4.3603 | Log k IAM ([1]; ACN 0.05 v/v in mobile phase): 0.968; Log k IAM ([1]; ACN 0.10 v/v in mobile phase): 0.692; Log k Chol ([2]; MeOH 0.30 v/v in mobile phase): 0.744; Log k Chol ([2]; MeOH 0.35 v/v in mobile phase): 0.656; Log k Chol ([2]; MeOH 0.40 v/v in mobile phase): 0.441 |
| 0.590 | 0.253 | 0.016 |  | -0.533 | 1.5455 | 6.0875 | 0.093 | -0.189 |  | 2.8538 | 5.2122 | 1.7456 | 0.008 | 1.4198 | 0.3508 | 0.302 | 0.1994 | O=C(COc1ccccc1)NNC(=S)Nc1ccc([N+](=O)[O-])cc1 [Compound 16] | 2.7200 | 5.1865 | Log k IAM ([1]; ACN 0.05 v/v in mobile phase): 1.287; Log k IAM ([1]; ACN 0.10 v/v in mobile phase): 0.964; Log k Chol ([2]; MeOH 0.30 v/v in mobile phase): 1.264; Log k Chol ([2]; MeOH 0.35 v/v in mobile phase): 1.082; Log k Chol ([2]; MeOH 0.40 v/v in mobile phase): 0.843; Log k Chol ([2]; MeOH 0.45 v/v in mobile phase): 0.478 |
| 0.336 | 0.088 | -0.150 | -0.484 | -0.467 | 1.1652 | 5.1370 | 0.179 | -0.078 | -0.997 | 2.4029 | 4.2398 | 1.2852 | 0.04 | 0.9823 | 0.3891 | 0.283 | 0.2424 | O=C(COc1ccccc1)NNC(=S)Nc1ccc(F)cc1 [Compound 9] | 2.1145 | 4.2984 | Log k IAM ([1]; ACN 0.05 v/v in mobile phase): 1.054; Log k IAM ([1]; ACN 0.10 v/v in mobile phase): 0.588; Log k Chol ([2]; MeOH 0.30 v/v in mobile phase): 1.111; Log k Chol ([2]; MeOH 0.35 v/v in mobile phase): 0.970; Log k Chol ([2]; MeOH 0.40 v/v in mobile phase): 0.696; Log k Chol ([2]; MeOH 0.45 v/v in mobile phase): 0.523 |
| 1.494 | 1.133 | 0.710 | 0.154 | -0.027 | 2.6121 | 7.6211 | 0.716 | 0.574 | -0.783 | 3.4243 | 5.1337 | 2.2183 |  | 1.8689 | 0.8829 | 0.107 | 0.7971 | O=C(COc1ccccc1)NNC(=S)Nc1cc(Cl)ccc1Cl [Compound 14] | 3.7050 | 5.6376 | Log k IAM ([1]; ACN 0.40 v/v in mobile phase): -0.366; Log k Chol ([2]; MeOH 0.45 v/v in mobile phase): 1.095; Log k Chol ([2]; MeOH 0.70 v/v in mobile phase): -0.138 |
| 1.542 | 1.032 | 0.667 | 0.158 | -0.062 | 2.5780 | 7.5617 | 1.013 | 0.792 | -0.876 | 4.2283 | 6.2128 | 1.8712 | 0.003 | 1.5391 | 0.9150 | 0.099 | 0.8332 | O=C(COc1ccccc1)NNC(=S)Nc1ccc(Cl)c(Cl)c1 [Compound 15] | 3.3757 | 5.3305 | Log k IAM ([1]; ACN 0.40 v/v in mobile phase): -0.346; Log k Chol ([2]; MeOH 0.45 v/v in mobile phase): 1.349; Log k Chol ([2]; MeOH 0.70 v/v in mobile phase): -0.087 |
